The source of these data is US20190062788A1, “LIPID NANOPARTICLE METHODS AND COMPOSITIONS FOR PRODUCING ENGINEERED ERYTHROID CELLS” (RUBIUS THERAPEUTICS, INC., priority 2017, published 2019).

No end group written: not given here. *: point of attachment. FITC = O=C1OC2(c3ccc(O)cc3Oc3cc(O)ccc32)c2ccc(NC(=S)*)cc21

For one experiment, the system named is erythroid cells. The experiment can be described thus: Uptake of labelled transferrin receptor-binding peptide into erythroid cells, fluorescence microscopy. As to conditions: added at day M2, about 1 mg/ml, 72 hours, 37 degrees. Format: cell-based. How it is done:
Uptake of a transferrin-binding peptide was also tested. Wild-type CD34+ cells were differentiated as described herein. At day M2 of maturation/differentiation, FITC-LC-HAIYPRH (a fluorescently labelled peptide that binds the transferrin receptor) was added to a culture of about 0.5×10^6 cells at about 1 mg/ml. The labeled peptide was obtained from Anapsec. The cells were cultured in the presence of the labeled peptide for 72 hours at 37 degrees. Internalization of the FITC-LC-HAIYPRH labeled polypeptide by erythroid cells was confirmed by fluorescence microscopy.

The test system of experiment [1] is erythroid cells undergoing maturation. The experiment can be described thus: Uptake of Alexa488-labeled transferrin by erythroid cells during maturation. Format: cell-based. As to conditions: 1 mg/ml in complete media, 0-24 hours, 37 or 4 degrees; days M1, M4, M5, M6. On the procedure:
In this example, transferrin receptor (CD71; also referred to herein as TRF) was evaluated for internalization into erythroid cells undergoing maturation. Briefly, wild-type CD34+ cells were differentiated as described herein. Samples of about 0.5×10^6 cells were taken on days M1, M4, M5, and M6 of maturation. […] The cells were incubated with the TRF-Alexa488 at a concentration of 1 mg/ml in complete media for 0-24 hours at 37 degrees or 4 degrees as indicated in FIG. 2.

With “FITC-LC-HAIYPRH: a fluorescently labelled peptide that binds the transferrin receptor, obtained from Anapsec ({FITC-LC}-HAIYPRH)”, the “Internalization of labeled polypeptide by erythroid cells” value in the experiment with erythroid cells is “confirmed”.
Consider “TFR-Alexa488: Alexa488-labeled transferrin obtained from Thermo Fisher Scientific (#T13342)”, for which the Transferrin internalization entry in experiment [1] is on record as “active throughout the maturation phase”.
